Source: US20230270855A1, “Genetically Modified T-Cells and PI3K/AKT Inhibitors For Cancer Treatment” (The Research Foundation for The State of University New York, priority 2018, published 2023)

How the values were obtained:
WT KPC pancreatic tumors = assay: Adoptive transfer of PI3K mutant-expressing T-cells plus BYL719 in tumor-bearing mice; assay type: in vivo; details: WT mice implanted with WT KPC cells
Description: To test the anti-tumor efficacy of CTLKPC clones that express one or more PI3K p110α mutants, one or more PI3K p110δ mutants or combinations of PI3K p110α and p110δ mutants, respectively, in vivo, WT mice are implanted with 0.5 million WT KPC cells in the pancreas. After 2 weeks, the pancreatic tumors are well established and are quantified by IVIS imaging. […] Changes in tumor size are monitored by IVIS imaging and survival curves are constructed. Post-mortem examination is performed as described above for analyzing the pancreas. Tumor regression is observed only in the groups that receive adoptive transfer of PI3K mutant-expressing T-cells, plus concurrent treatment with the appropriate PI3K inhibitor.

Akt1W80A = Akt1W80A (Homo sapiens, UniProt P31749, W80A); details: previous studies; cited from earlier work
Sequence of Akt1W80A (P31749 whole entry W80A): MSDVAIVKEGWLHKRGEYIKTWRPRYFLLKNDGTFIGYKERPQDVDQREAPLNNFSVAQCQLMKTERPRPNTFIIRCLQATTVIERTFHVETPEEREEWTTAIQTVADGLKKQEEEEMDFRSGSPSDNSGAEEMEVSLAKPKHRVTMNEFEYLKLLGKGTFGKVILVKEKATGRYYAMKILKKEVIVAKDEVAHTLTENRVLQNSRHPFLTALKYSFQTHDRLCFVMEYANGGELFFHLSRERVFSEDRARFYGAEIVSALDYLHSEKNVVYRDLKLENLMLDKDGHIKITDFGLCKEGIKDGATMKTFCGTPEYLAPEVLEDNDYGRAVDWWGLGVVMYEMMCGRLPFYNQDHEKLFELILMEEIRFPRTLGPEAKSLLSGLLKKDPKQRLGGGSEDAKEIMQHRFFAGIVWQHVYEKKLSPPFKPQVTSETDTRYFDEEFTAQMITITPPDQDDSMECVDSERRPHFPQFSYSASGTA

Akt2W80A = Akt2W80A (Homo sapiens, UniProt P31751, W80A); details: previous studies; cited from earlier work
Sequence of Akt2W80A (P31751 whole entry W80A): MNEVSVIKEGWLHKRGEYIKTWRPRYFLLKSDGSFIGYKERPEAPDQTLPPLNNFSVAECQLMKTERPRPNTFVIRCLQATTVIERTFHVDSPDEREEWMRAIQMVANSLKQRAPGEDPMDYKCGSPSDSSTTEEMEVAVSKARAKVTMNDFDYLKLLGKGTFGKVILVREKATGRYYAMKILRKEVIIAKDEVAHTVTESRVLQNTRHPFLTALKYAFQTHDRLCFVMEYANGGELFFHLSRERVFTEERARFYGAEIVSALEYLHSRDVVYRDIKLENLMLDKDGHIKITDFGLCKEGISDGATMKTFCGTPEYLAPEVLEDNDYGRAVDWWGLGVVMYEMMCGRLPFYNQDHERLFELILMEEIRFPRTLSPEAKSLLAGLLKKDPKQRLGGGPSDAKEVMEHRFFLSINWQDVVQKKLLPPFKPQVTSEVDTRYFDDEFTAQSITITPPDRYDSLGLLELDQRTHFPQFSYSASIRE

Structure (SMILES) | survival (WT KPC pancreatic tumors) | inhibition of Akt1W80A mutant (Akt1W80A) | inhibition of Akt2W80A mutant (Akt2W80A)
Cc1nc(NC(=O)N2CCC[C@H]2C(N)=O)sc1-c1ccnc(C(C)(C)C(F)(F)F)c1 [BYL719] | all die from pancreatic tumor progression |  | 
NC1(c2ccc(-c3nc4ccn5c(=O)[nH]nc5c4cc3-c3ccccc3)cc2)CCC1 [MK2206] |  | completely resistant | completely resistant
